Among the data in PubChem BioAssay (NCI) are GI50 and TGI values, retold here.

What all share (assay): NCI-60 cell line screen, 48 h
Test [1] concerns CAKI-1 renal.
For test [2], the system named is DU-145 prostate.
In test [3] the test system is EKVX NSCLC.
For test [4], the system named is HL-60(TB) leukemia.
Test [5] deals with MALME-3M melanoma.
Test [6] concerns MOLT-4 leukemia.
The subject of test [7] is NCI/ADR-RES ovarian.
Test [8] relates to OVCAR-8 ovarian.
The subject of test [9] is SF-539 CNS.
In test [10] the test system is T-47D breast.

Molecules are shown by their SMILES. “And” between values parts separate entries of the source, which are not always exact repeats. Equal values may be shown once.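 Tested at 5 concentrations; 48 h exposure; 96-well plates; endpoints linearly interpolated, else capped at highest concentration. Here, GI50 denotes the concentration required for 50% inhibition of growth. At the TGI there is no net growth.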

Turning to `O=C1[C@H](Cc2ccc(O)cc2)N2C(=O)CCN(C(=O)NCc3ccccc3)[C@H]2CN1Cc1cccc2ccccc12`, the GI50 in test [1] was 14.2 µM; in test [2], 4.55 µM; in [3], 3.81 µM; in [4], 4.84 µM; in [5] it was 1.9 µM; in [6], 1.67 µM. For the same molecule, the GI50 was 43.5 µM in test [7], 0.959 µM in [8], 0.926 µM in test [9] and 2.34 µM in test [10]. Moreover, the TGI in test [1] was above 80.1 µM; in test [2], 46.5 µM; in test [3] it was above 100 µM; in test [4], 27.3 µM; in test [5] it was 9.46 µM; in test [6] it was 54.1 µM. Further, the TGI in [7] was above 100 µM; in test [8], 13.5 µM; in test [9], 7.4 µM; in test [10], 15.4 µM.

With `COc1ccccc1CNCCCN1C(=O)c2ccc3c4c(ccc(c24)C1=O)C(=O)N(CCCNCc1ccccc1OC)C3=O`, the GI50 in test [1] was 0.233 µM; in [2], 0.163 µM; in test [3] it was 0.168 µM; in [4], 0.212 µM; in test [5] it was 0.155 µM; in [6] it was 0.112 µM. The GI50 in test [7] is 1.19 µM; in test [8], 0.137 µM; in [9] it was 0.221 µM; in [10] it was 0.188 µM. Moreover, the TGI was determined as 0.725 µM in [1]; 0.309 µM in test [2]; 0.343 µM in test [3]; 0.453 µM in test [4]; 0.32 µM in test [5]; 0.455 µM in test [6]. The TGI in [7] came to 4.54 µM; in test [8], 2.26 µM; in test [9], 0.612 µM; in test [10] it was 0.42 µM.

`CN(C)CCCC1(c2ccc(F)cc2)OCc2cc(-c3csc4ccccc34)ccc21` (centres undefined): the GI50 in test [1] is 1.62 µM; in [2] it was 1.72 µM; in test [3], 1.51 µM; in [4], 1.77 µM; in [5], 1.43 µM; in test [6] it was 1.79 µM. The GI50 is 1.59 µM in [7], 1.87 µM in test [8], 1.71 µM in test [9] and 1.71 µM in [10]. Besides, the TGI in test [1] was 3.05 µM; in [2], 3.15 µM; in [3], 2.89 µM; in test [4], 3.7 µM; in [5], 2.94 µM; in test [6], 3.52 µM. The TGI in test [7] was 3.07 µM; in test [8] it was 3.84 µM; in [9], 3.08 µM; in test [10], 3.7 µM.

In the case of `O=C1NC(=O)C2C3C=CC(C12)C1C2C(=O)NC(=O)C2C31` (centres undefined), the GI50 in test [1] is 568 µM; in test [2], above 619 µM; in [3], 543 µM; in test [5] it was above 785 µM; in test [6], 160 µM; in test [7], above 1000 µM. Moreover, the GI50 in [8] is 880 µM; in test [9] it was 316 µM; in [10], 480 µM. The TGI in [1] was 250 µM and > 1000 µM; in test [2] it was above 1000 µM; in test [3] it was 250 µM and > 1000 µM; in test [4], 206 µM and > 1000 µM; in test [5] it was 250 µM and > 1000 µM; in [6] it was 201 µM and 850 µM. The TGI was above 1000 µM in test [7]; 206 µM and > 1000 µM in [8]; 199 µM and > 1000 µM in test [9]; above 1000 µM in test [10].

As to `O=C(NO)c1ccc(CNc2cccc3nc(C4CC4)n(-c4ccccc4)c(=O)c23)cc1`, the GI50 is 2.12 µM in [1]; 2.52 µM in [2]; 2.55 µM in test [3]; 2.39 µM in test [4]; 2.05 µM in test [5]; 2.79 µM in test [6]. Also, the GI50 is 1.28 µM in [7], 1.65 µM in [8], 1.71 µM in [9] and 2.08 µM in test [10]. Besides, the TGI in [1] is 7.51 µM; in [2], 13.7 µM; in [3] it was 7.43 µM; in [4], 5.64 µM; in [5], 7.61 µM; in test [6], 23.3 µM. The TGI in [7] turned out to be 6.45 µM; in test [8] it was 5.82 µM; in test [9], 3.53 µM; in test [10], 7.34 µM.

As for `C=C(C)c1nc(Oc2ccccc2)nc(Oc2ccccc2)n1`, the TGI in test [1] was 4.44 µM; in [2] it was 30.4 µM; in test [3], 32.8 µM; in test [4], 4.51 µM; in test [5], 27.6 µM; in [6], 1.69 µM. For the same molecule, the TGI in test [7] was 29.7 µM; in test [8], 24.4 µM; in [9], 14.5 µM; in test [10] it was 21.6 µM.

With `COc1ccc(-n2c(=O)c3ccccc3n(Cc3ccc(C(=O)NO)cc3)c2=O)cc1`, the GI50 in test [1] was 6.39 µM; in test [2], 3.24 µM; in test [3], 1.92 µM; in test [4], 3.51 µM; in [5], 1.58 µM; in test [6] it was 3.21 µM. Besides, the GI50 was 18.2 µM in test [7], 1.8 µM in test [8], 1.93 µM in test [9] and 1.9 µM in test [10]. In addition, the TGI is 23.9 µM in [1]; above 100 µM in test [2]; 4.31 µM in test [3]; above 100 µM in test [4]; 5.92 µM in [5]; above 100 µM in [6]. Also, the TGI was above 100 µM in test [7], 5.88 µM in test [8], 5.25 µM in test [9] and 6.63 µM in test [10].

As to `CNCc1cccc2c1OCCOCCOCCNS(=O)(=O)c1ccc(cc1)-c1cnc(N)c(n1)C(=O)N2`, the GI50 in test [1] is 0.46 µM; in [2], 1.24 µM; in [3], 2.83 µM; in [4], 0.452 µM; in test [5], 1.55 µM; in test [6], 0.557 µM. Besides, the GI50 in test [7] was 84.3 µM; in [8], 1.61 µM; in test [9] it was 1.11 µM; in [10] it was 2.05 µM. Also, the TGI in [1] turned out to be 1.86 µM; in test [2], 3.36 µM; in [3] it was 11.2 µM; in [4] it was 1.89 µM; in test [5], 3.08 µM; in [6], 7.68 µM. Further, the TGI in test [7] is above 100 µM; in [8], 10.4 µM; in [9], 2.38 µM; in test [10] it was 5.46 µM.
